These results are taken from patent US20240270751A1, “Pyrazolopyridinone Compounds” (BeiGene Ltd., priority 2021, published 2024).

SMILES strings stand for the structures. Some results are limits rather than exact numbers.

The target of assay [1] is DGKζ (Homo sapiens (Human), UniProt Q13574). Briefly: Biochemical DGK IC50 assay, DGKζ ADP-Glo assay. The note with it: 0.5 nM enzyme, 140 μM ATP, 80 μM DAG; read-out: DGKζ ADP-Glo assay IC50. The method in brief:
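ADP formation measured by ADP-Glo luminescence, with test compounds at final 1.55–10000 nM or 23.3–150000 nM. Enzyme: purified full-length human DGKζ from Sf9 insect cells; substrate: DAG/PS micelles in 25 mM HEPES pH 7.0, 0.5 mM EDTA, octyl glucoside.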
(ADP-Glo first removes unused ATP, then detects ADP through luciferase.)

In assay [2] the target is DGKα (Homo sapiens (Human), UniProt P23743). Put plainly: Biochemical DGK IC50 assay, DGKα ADP-Glo assay. The note with it: 7.5 nM enzyme, 140 μM ATP, 80 μM DAG. The method in brief: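 Compounds at final 1.55˜10000 nM or 23.3˜150000 nM were tested against full-length DGKα. Substrate was lipid micelles of DAG and PS resuspended in 25 mM HEPES pH 7.0 with 0.5 mM EDTA and 160 mM octyl β-D-glucopyranoside. ADP formed was detected by ADP-Glo.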
Chain of DGKα (P23743 whole entry): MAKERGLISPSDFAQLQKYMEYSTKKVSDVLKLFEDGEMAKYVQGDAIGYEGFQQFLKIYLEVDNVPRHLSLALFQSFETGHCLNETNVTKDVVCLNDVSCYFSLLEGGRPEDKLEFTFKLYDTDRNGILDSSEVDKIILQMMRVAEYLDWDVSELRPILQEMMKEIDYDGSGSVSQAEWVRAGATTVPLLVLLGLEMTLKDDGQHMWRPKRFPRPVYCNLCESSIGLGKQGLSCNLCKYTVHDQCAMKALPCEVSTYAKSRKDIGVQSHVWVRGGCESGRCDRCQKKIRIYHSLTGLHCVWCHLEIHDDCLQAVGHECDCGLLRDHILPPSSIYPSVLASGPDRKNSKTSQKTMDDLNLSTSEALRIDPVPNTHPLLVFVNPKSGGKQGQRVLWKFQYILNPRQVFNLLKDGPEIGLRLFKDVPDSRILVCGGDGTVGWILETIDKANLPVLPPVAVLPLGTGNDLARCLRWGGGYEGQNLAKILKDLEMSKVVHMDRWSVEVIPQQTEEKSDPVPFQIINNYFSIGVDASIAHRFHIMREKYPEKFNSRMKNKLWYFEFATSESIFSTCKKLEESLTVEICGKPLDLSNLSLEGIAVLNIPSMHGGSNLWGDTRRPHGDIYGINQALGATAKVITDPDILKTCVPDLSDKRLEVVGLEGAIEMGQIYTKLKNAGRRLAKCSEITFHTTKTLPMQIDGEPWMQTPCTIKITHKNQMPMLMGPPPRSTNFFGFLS

Chain of DGKζ (Q13574 other isoform, or with tags, fused parts or gaps): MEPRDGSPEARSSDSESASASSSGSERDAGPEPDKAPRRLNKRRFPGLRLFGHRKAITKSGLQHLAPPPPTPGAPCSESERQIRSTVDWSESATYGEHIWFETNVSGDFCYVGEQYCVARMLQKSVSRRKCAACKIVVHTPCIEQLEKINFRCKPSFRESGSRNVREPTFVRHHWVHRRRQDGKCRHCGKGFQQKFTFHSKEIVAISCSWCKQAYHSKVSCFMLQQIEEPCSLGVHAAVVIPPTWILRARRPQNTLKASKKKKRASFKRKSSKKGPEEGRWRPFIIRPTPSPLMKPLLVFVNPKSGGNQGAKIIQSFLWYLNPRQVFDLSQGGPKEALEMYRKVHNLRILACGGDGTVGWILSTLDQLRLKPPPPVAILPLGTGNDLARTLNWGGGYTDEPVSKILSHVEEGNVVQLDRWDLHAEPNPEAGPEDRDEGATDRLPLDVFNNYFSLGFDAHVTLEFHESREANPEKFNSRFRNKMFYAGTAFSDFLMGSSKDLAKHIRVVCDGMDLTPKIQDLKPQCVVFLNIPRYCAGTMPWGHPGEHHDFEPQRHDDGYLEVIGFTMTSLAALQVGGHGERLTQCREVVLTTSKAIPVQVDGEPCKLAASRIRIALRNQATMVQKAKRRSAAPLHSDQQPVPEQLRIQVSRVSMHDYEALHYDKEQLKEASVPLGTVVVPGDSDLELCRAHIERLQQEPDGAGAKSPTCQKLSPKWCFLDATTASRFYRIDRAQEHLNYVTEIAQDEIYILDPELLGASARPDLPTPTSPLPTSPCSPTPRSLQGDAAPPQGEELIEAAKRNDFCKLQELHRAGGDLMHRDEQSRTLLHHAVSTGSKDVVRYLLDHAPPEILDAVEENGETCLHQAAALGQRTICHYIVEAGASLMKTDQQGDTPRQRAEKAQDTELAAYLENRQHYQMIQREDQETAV

Turning to `CC[C@@H]1CN(c2cc(=O)n(C)c3cn(CC#N)nc23)[C@@H](C)CN1C(C)c1ccc(F)cc1C(F)(F)F` (single isomer, unassigned) [Compound A218b], the half-maximal inhibitory concentration (IC50) in assay [1] was 3960 nM; in assay [2] it was greater than 10000 nM.

Take `CC[C@H]1CN(C(C)c2ccc(F)cc2F)[C@H](CC)CN1c1cc(=O)n(C)c2cn(CC#N)nc12` (single isomer, unassigned) [Compound A132b]: the IC50 in assay [1] stood at 1780 nM; in assay [2], 330 nM.

Take `CC[C@H]1CN(C(C)c2ccc(OC(F)(F)F)cc2)[C@H](CC)CN1c1cc(=O)n(C)c2cn(CC#N)nc12` (stereo partly drawn) [Compound A122]: the values for the IC50 in assay [1] and in assay [2] were 635 nM and 10.5 nM, respectively.

Consider `CC[C@H]1CN(C(C)c2ncc(OC(C)C)cc2F)[C@H](CC)CN1c1cc(=O)n(C)c2cn(CC#N)nc12` (stereo partly drawn) [Compound A387], for which the concentration for half-maximal inhibition (IC50) in assay [1] came to 4890 nM; in assay [2], 75000 nM.

Turning to `CC[C@H]1CN([C@@H](C)c2ccc3nccnc3c2)[C@H](CC)CN1c1cc(=O)[nH]c2cn(CC#N)nc12` [Compound A129, 2-(7-((2S,5R)-2,5-diethyl-4-((S)-1-(quinoxalin-6-yl)ethyl)piperazin-1-yl)-5-oxo-4,5-dihydro-2H-pyrazolo[4,3-b]pyridin-2-yl)acetonitrile], the IC50 is 33 nM in assay [1] and 2350 nM in assay [2].

For the molecule `CC(c1ccc(CN2CCOC(C)(C)C2)cc1)N1C[C@H](C)N(c2cc(=O)n(C)c3cn(CC#N)nc23)C[C@H]1C` (stereo partly drawn) [Compound A341, 2-(7-((2S,5R)-4-(1-(4-((2,2-dimethylmorpholino)methyl)phenyl)ethyl)-2,5-dimethylpiperazin-1-yl)-4-methyl-5-oxo-4,5-dihydro-2H-pyrazolo[4,3-b]pyridin-2-yl)acetonitrile], the IC50 in assay [1] amounted to 4250 nM; in assay [2], 1620 nM.

In the case of `CC(c1ccc2c(c1)OCCO2)N1C[C@H](C)N(c2cc(=O)n(C)c3cn(CC#N)nc23)C[C@H]1C` (stereo partly drawn) [Compound A43], the IC50 in assay [1] was determined as 65 nM; in assay [2], 2900 nM.

In the case of `CC[C@@H]1CN(c2cc(=O)n(C)c3cn(CC#N)nc23)[C@@H](CC)CN1C(=O)c1cc2ccccc2cn1` [Compound A372], the IC50 in assay [1] came to 3450 nM; in assay [2], 127 nM.

Turning to `CC[C@H]1CN(C(C)c2ccc(Cl)cn2)[C@H](CC)CN1c1cc(=O)n(C)c2cn(CC#N)nc12` (single isomer, unassigned) [Compound A360b], the IC50 in assay [1] was determined as 134 nM; in assay [2] it was 2.7 nM.

In the case of `CC[C@H]1CN(C(C)c2c(C)cccc2C(F)(F)F)[C@H](CC)CN1c1cc(=O)n(C)c2cn(CC#N)nc12` (stereo partly drawn) [Compound A117], the values for the IC50 in assay [1] and in assay [2] were 3870 nM and greater than 10000 nM, respectively.

As to `CC[C@H]1CN(C(C)c2ccc(C)cc2C(F)(F)F)[C@H](CC)CN1c1cc(=O)n(C)c2cn(CC#N)nc12` (single isomer, unassigned) [Compound A115a], the 50% inhibitory concentration (IC50) in assay [1] and in assay [2] was greater than 10000 nM in each case.

In the case of `CC[C@@H]1CN(c2cc(=O)n(C)c3cn(CC#N)nc23)[C@@H](CC)CN1Cc1ccc(OC(F)(F)F)cc1` [Compound A77], the results for the IC50 in assay [1] and in assay [2] were 600 nM and 9.2 nM, respectively.

Regarding `CC[C@@H]1CN(c2cc(=O)n(C)c3cn(CC#N)nc23)CCN1C(C)c1ccc2nccnc2c1` (single isomer, unassigned) [Compound A161a], the IC50 in assay [1] and in assay [2] was greater than 10000 nM in each case.

Regarding `CC[C@H]1CN(C(C)c2ccc3ncn(C)c3c2)[C@H](CC)CN1c1cc(=O)n(C)c2cn(CC#N)nc12` (stereo partly drawn) [Compound A64], the figures for the IC50 in assay [1] and in assay [2] were 230 nM and 2800 nM, respectively.

For the molecule `CC(c1ccc2nccnc2c1)N1C[C@H](C)N(c2cc(=O)n(C)c3cn(C(=O)C4CC4)nc23)C[C@H]1C` (stereo partly drawn) [Compound A15], the figures for the IC50 in assay [1] and in assay [2] were 34000 nM and 5900 nM, respectively.

In the case of `CC[C@@H]1CN(c2cc(=O)n(C)c3cn(CC#N)nc23)[C@@H](CC)CN1C(=O)c1cnc2ccccc2n1` [Compound A374], the IC50 in assay [1] turned out to be 51 nM; in assay [2], 618 nM.

On to `CC[C@H]1CN(C(C)c2ccc(F)cc2)[C@H](CC)CN1c1cc(=O)n(C)c2cn(CC#N)nc12` (stereo partly drawn) [Compound A67], for which the IC50 in assay [1] stood at 130 nM; in assay [2], 10 nM.

Turning to `CC[C@H]1CN(C(C)c2cccnc2OC)[C@H](CC)CN1c1cc(=O)n(C)c2cn(CC#N)nc12` (stereo partly drawn) [Compound A105], the IC50 in assay [1] is 258 nM; in assay [2], 8920 nM.

Consider `CCC1CN(c2c(Br)c(=O)n(C)c3cn(CC#N)nc23)CCN1[C@@H](C)c1ccc2nccnc2c1` (stereo partly drawn) [Compound A179a, 2-(6-bromo-7-((2S,5R)-3-ethyl-4-(1-(quinoxalin-6-yl)ethyl)piperazin-1-yl)-4-methyl-5-oxo-4,5-dihydro-2H-pyrazolo[4,3-b]pyridin-2-yl)acetonitrile], for which the IC50 is 7880 nM in assay [1] and greater than 10000 nM in assay [2].

As to `CC[C@@H]1CN(c2cc(=O)n(C)c3cn(CC#N)nc23)[C@@H](C)CN1C(c1ccc(F)cc1)c1ccc(C(F)(F)F)cn1` (stereo partly drawn) [Compound A332, 2-(7-((2S,5R)-5-ethyl-4-((4-fluorophenyl)(5-(trifluoromethyl)pyridin-2-yl)methyl)-2-methylpiperazin-1-yl)-4-methyl-5-oxo-4,5-dihydro-2H-pyrazolo[4,3-b]pyridin-2-yl)acetonitrile], the IC50 in assay [1] amounted to 169 nM; in assay [2] it was 123 nM.

As for `CC(c1ccc(F)cc1C1(O)COC1)N1C[C@H](C)N(c2cc(=O)n(C)c3cn(CC#N)nc23)C[C@H]1C` (stereo partly drawn) [Compound A271, 2-(7-((2S,5R)-4-(1-(4-fluoro-2-(3-hydroxyoxetan-3-yl)phenyl)ethyl)-2,5-dimethylpiperazin-1-yl)-4-methyl-5-oxo-4,5-dihydro-2H-pyrazolo[4,3-b]pyridin-2-yl)acetonitrile], the IC50 in assay [1] and in assay [2] was greater than 10000 nM throughout.

For the molecule `CC(c1ccc2c(c1)OCCO2)N1C[C@H](C)N(c2cc(=O)n(C)c3cn(CC#N)nc23)C[C@H]1C` (single isomer, unassigned) [Compound A43a], the IC50 in assay [1] came out at 5080 nM; in assay [2] it was 37700 nM.

`COC(C)c1cc(F)ccc1C(C)N1C[C@H](C)N(c2cc(=O)n(C)c3cn(CC#N)nc23)C[C@H]1C` (single isomer, unassigned) [Compound A286b]: the IC50 in assay [1] worked out at 17 nM; in assay [2], 51500 nM.

Consider `CC[C@@H]1CN(c2c(Cl)c(=O)n(C)c3cn(CC#N)nc23)CCN1C(C)c1ccc2nccnc2c1` (single isomer, unassigned) [Compound A162b], for which the IC50 is 1050 nM in assay [1] and greater than 10000 nM in assay [2].

On to `C[C@@H]1CN(c2c(C#N)c(=O)n(C)c3cn(CC#N)nc23)[C@@H](C)CN1[C@@H](C)c1ccc2nccnc2c1` [Compound A134, 2-(cyanomethyl)-7-((2S,5R)-2,5-dimethyl-4-((S)-1-(quinoxalin-6-yl)ethyl)piperazin-1-yl)-4-methyl-5-oxo-4,5-dihydro-2H-pyrazolo[4,3-b]pyridine-6-carbonitrile], for which the figures for the IC50 in assay [1] and in assay [2] were 35 nM and 1940 nM, respectively.

For the molecule `CC[C@H]1CN(C(C)c2cc(Cl)nn2CC)[C@H](CC)CN1c1cc(=O)n(C)c2cn(CC#N)nc12` (stereo partly drawn) [Compound A212], the IC50 in assay [1] is 1130 nM; in assay [2] it was greater than 10000 nM.

Regarding `CC[C@@H]1CN(c2cc(=O)n(C)c3cn(CC#N)nc23)[C@@H]([C@@H](C)O)CN1C(C)c1ccc2nccnc2c1` (stereo partly drawn) [Compound A259, 2-(7-((2R,5R)-5-ethyl-2-((R)-1-hydroxyethyl)-4-(1-(quinoxalin-6-yl)ethyl)piperazin-1-yl)-4-methyl-5-oxo-4,5-dihydro-2H-pyrazolo[4,3-b]pyridin-2-yl)acetonitrile], the values for the IC50 in assay [1] and in assay [2] were 380 nM and greater than 10000 nM, respectively.

On to `CC[C@H]1CN(C(C)c2ccc(OC3CCOCC3)cc2)[C@H](CC)CN1c1cc(=O)n(C)c2cn(CC#N)nc12` (stereo partly drawn) [Compound A380], for which the IC50 worked out at 667 nM in assay [1] and 161 nM in assay [2].

On to `CC[C@H]1CN(C(C)c2cnc3ccccc3n2)[C@H](CC)CN1c1cc(=O)n(C)c2cn(CC#N)nc12` (single isomer, unassigned) [Compound A155b], for which the IC50 in assay [1] came out at 7.6 nM; in assay [2] it was 32 nM.

For the molecule `CC[C@H]1CN(C(C)c2ccc(F)cc2CO)[C@H](CC)CN1c1cc(=O)n(C)c2cn(CC#N)nc12` (stereo partly drawn) [Compound A152, 2-(7-((2S,5R)-2,5-diethyl-4-(1-(4-fluoro-2-(hydroxymethyl)phenyl)ethyl)piperazin-1-yl)-4-methyl-5-oxo-4,5-dihydro-2H-pyrazolo[4,3-b]pyridin-2-yl)acetonitrile], the IC50 in assay [1] came out at 1770 nM; in assay [2], 4380 nM.

In the case of `CC(c1ccc2ncc(CO)nc2c1)N1C[C@H](C)N(c2cc(=O)n(C)c3cn(CC#N)nc23)C[C@H]1C` (single isomer, unassigned) [Compound A309b], the values for the IC50 in assay [1] and in assay [2] were 369 nM and 87000 nM, respectively.

In the case of `CC[C@H]1CN([C@H](C)c2ccc3nccnc3c2)[C@H](CC)CN1c1cc(=O)n(CC(F)(F)F)c2cn(CC#N)nc12` [Compound A124], the IC50 in assay [1] and in assay [2] was greater than 10000 nM throughout.

As for `CC(c1ccc2nccnc2c1)N1C[C@H](C)N(c2nc(=O)n(C)c3cn(CC#N)nc23)C[C@H]1C` (single isomer, unassigned) [Compound A220, 2-(7-((2S,5R)-2,5-dimethyl-4-((S)-1-(quinoxalin-6-yl)ethyl)piperazin-1-yl)-4-methyl-5-oxo-4,5-dihydro-2H-pyrazolo[4,3-d]pyrimidin-2-yl)acetonitrile, or 2-(7-((2S,5R)-2,5-dimethyl-4-((R)-1-(quinoxalin-6-yl)ethyl)piperazin-1-yl)-4-methyl-5-oxo-4,5-dihydro-2H-pyrazolo[4,3-d]pyrimidin-2-yl)acetonitrile], the results for the half-maximal inhibitory concentration (IC50) in assay [1] and in assay [2] were 67 nM and 8690 nM, respectively.

Broadly, the IC50 is the midpoint of a concentration-inhibition curve.
